Data taken from patent US10898459B2, “Method of treating chronic kidney disease” (Panion & BF Biotech Inc., priority 2006, dated 2021).

Tested on: patients with end stage renal disease (ESRD) on hemodialysis
Test: Treatment-emergent adverse events in the dose-ranging ESRD study
Assay type: in vivo, human
From the text: Safety will be monitored by recording adverse events and the results of physical examinations, vital signs and laboratory tests at each study visit.
Objectives: (1) To determine the effect of ferric citrate at doses of 2, 4 and 6 g daily, administered TID (three times a day), for 28 days on serum phosphate (PO4) levels in patients with end stage renal disease (ESRD). (2) To evaluate the safety of ferric citrate at doses of 2, 4, 6 g daily, administered TID, for 28 days in patients with ESRD.
Study Design: Randomized, double-blind, placebo-controlled, dose-ranging study to assess the effect of ferric citrate on serum phosphate concentrations in patients with ESRD on hemodialysis. Patients are assessed at Study Days 14 and 28 for effectiveness as measured by serum phosphate concentrations. Patients who received one or more doses of study medication are also assessed for safety.

Substance: ferric citrate
- Abdominal Pain (Preferred Term), # Event (2 g/day (N = 33)): 0
- Abdominal Pain (Preferred Term), (%) (2 g/day (N = 33)): (0.0) %
- Diarrhea (Preferred Term), # Event (2 g/day (N = 33)): 3
- Diarrhea (Preferred Term), (%) (2 g/day (N = 33)): (9.1) %
- GI Disorder, Definitely (relationship), # Event (2 g/day (N = 33)): 0
- GI Disorder, Definitely (relationship), (%) (2 g/day (N = 33)): (0.0) %
- GI Disorder, Possibly (relationship), # Event (2 g/day (N = 33)): 3
- GI Disorder, Possibly (relationship), (%) (2 g/day (N = 33)): (9.1) %
- GI Disorder, Probably (relationship), # Event (2 g/day (N = 33)): 2
- GI Disorder, Probably (relationship), (%) (2 g/day (N = 33)): (6.1) %
- GI Disorders (System Organ Class), # Event (2 g/day (N = 33)): 8
- GI Disorders (System Organ Class), (%) (2 g/day (N = 33)): (24.2) %
- GI Disorders, Mild (severity), # Event (2 g/day (N = 33)): 6
- GI Disorders, Mild (severity), (%) (2 g/day (N = 33)): (18.2) %
- General Disorders (System Organ Class), # Event (2 g/day (N = 33)): 4
- General Disorders (System Organ Class), (%) (2 g/day (N = 33)): (12.1) %
- Infections and Infestations (System Organ Class), # Event (2 g/day (N = 33)): 0
- Infections and Infestations (System Organ Class), (%) (2 g/day (N = 33)): (0.0) %
- Skin and SC Tissue Disorders (System Organ Class), # Event (2 g/day (N = 33)): 3
- Skin and SC Tissue Disorders (System Organ Class), (%) (2 g/day (N = 33)): (9.1) %
- T#at1 AE, Definitely (relationship), # Event (2 g/day (N = 33)): 0
- T#at1 AE, Definitely (relationship), (%) (2 g/day (N = 33)): (0.0) %
- T#at1 AE, Mild (severity), # Event (2 g/day (N = 33)): 13
- T#at1 AE, Mild (severity), (%) (2 g/day (N = 33)): (39.4) %
- T#at1 AE, Moderate (severity), # Event (2 g/day (N = 33)): 6
- T#at1 AE, Moderate (severity), (%) (2 g/day (N = 33)): (18.2) %
- T#at1 AE, Possibly (relationship), # Event (2 g/day (N = 33)): 5
- T#at1 AE, Possibly (relationship), (%) (2 g/day (N = 33)): (15.2) %
- T#at1 AE, Probably (relationship), # Event (2 g/day (N = 33)): 2
- T#at1 AE, Probably (relationship), (%) (2 g/day (N = 33)): (6.1) %
- T#at1 AE, Severe (severity), # Event (2 g/day (N = 33)): 0
- T#at1 AE, Severe (severity), (%) (2 g/day (N = 33)): (0.0) %
- Total number of subjects with at least one adverse event (T#at1 AE), # Event (2 g/day (N = 33)): 16
- Total number of subjects with at least one adverse event (T#at1 AE), (%) (2 g/day (N = 33)): (48.5) %
- Abdominal Pain (Preferred Term), # Event (4 g/day (N = 34)): 4
- Abdominal Pain (Preferred Term), (%) (4 g/day (N = 34)): (11.8) %
- Diarrhea (Preferred Term), # Event (4 g/day (N = 34)): 1
- Diarrhea (Preferred Term), (%) (4 g/day (N = 34)): (2.9) %
- GI Disorder, Definitely (relationship), # Event (4 g/day (N = 34)): 0
- GI Disorder, Definitely (relationship), (%) (4 g/day (N = 34)): (0.0) %
- GI Disorder, Possibly (relationship), # Event (4 g/day (N = 34)): 6
- GI Disorder, Possibly (relationship), (%) (4 g/day (N = 34)): (17.6) %
- GI Disorder, Probably (relationship), # Event (4 g/day (N = 34)): 2
- GI Disorder, Probably (relationship), (%) (4 g/day (N = 34)): (5.9) %
- GI Disorders (System Organ Class), # Event (4 g/day (N = 34)): 10
- GI Disorders (System Organ Class), (%) (4 g/day (N = 34)): (29.4) %
- GI Disorders, Mild (severity), # Event (4 g/day (N = 34)): 8
- GI Disorders, Mild (severity), (%) (4 g/day (N = 34)): (23.5) %
- General Disorders (System Organ Class), # Event (4 g/day (N = 34)): 2
- General Disorders (System Organ Class), (%) (4 g/day (N = 34)): (5.9) %
- Infections and Infestations (System Organ Class), # Event (4 g/day (N = 34)): 3
- Infections and Infestations (System Organ Class), (%) (4 g/day (N = 34)): (8.8) %
- Skin and SC Tissue Disorders (System Organ Class), # Event (4 g/day (N = 34)): 0
- Skin and SC Tissue Disorders (System Organ Class), (%) (4 g/day (N = 34)): (0.0) %
- T#at1 AE, Definitely (relationship), # Event (4 g/day (N = 34)): 0
- T#at1 AE, Definitely (relationship), (%) (4 g/day (N = 34)): (0.0) %
- T#at1 AE, Mild (severity), # Event (4 g/day (N = 34)): 9
- T#at1 AE, Mild (severity), (%) (4 g/day (N = 34)): (26.5) %
- T#at1 AE, Moderate (severity), # Event (4 g/day (N = 34)): 3
- T#at1 AE, Moderate (severity), (%) (4 g/day (N = 34)): (8.8) %
- T#at1 AE, Possibly (relationship), # Event (4 g/day (N = 34)): 6
- T#at1 AE, Possibly (relationship), (%) (4 g/day (N = 34)): (17.6) %
- T#at1 AE, Probably (relationship), # Event (4 g/day (N = 34)): 2
- T#at1 AE, Probably (relationship), (%) (4 g/day (N = 34)): (5.9) %
- T#at1 AE, Severe (severity), # Event (4 g/day (N = 34)): 2
- T#at1 AE, Severe (severity), (%) (4 g/day (N = 34)): (5.9) %
- Total number of subjects with at least one adverse event (T#at1 AE), # Event (4 g/day (N = 34)): 12
- Total number of subjects with at least one adverse event (T#at1 AE), (%) (4 g/day (N = 34)): (35.3) %
- Abdominal Pain (Preferred Term), # Event (6 g/day (N = 33)): 2
- Abdominal Pain (Preferred Term), (%) (6 g/day (N = 33)): (6.1) %
- Diarrhea (Preferred Term), # Event (6 g/day (N = 33)): 1
- Diarrhea (Preferred Term), (%) (6 g/day (N = 33)): (3.0) %
- GI Disorder, Definitely (relationship), # Event (6 g/day (N = 33)): 0
- GI Disorder, Definitely (relationship), (%) (6 g/day (N = 33)): (0.0) %
- GI Disorder, Possibly (relationship), # Event (6 g/day (N = 33)): 1
- GI Disorder, Possibly (relationship), (%) (6 g/day (N = 33)): (3.0) %
- GI Disorder, Probably (relationship), # Event (6 g/day (N = 33)): 5
- GI Disorder, Probably (relationship), (%) (6 g/day (N = 33)): (15.2) %
- GI Disorders (System Organ Class), # Event (6 g/day (N = 33)): 10
- GI Disorders (System Organ Class), (%) (6 g/day (N = 33)): (30.3) %
- GI Disorders, Mild (severity), # Event (6 g/day (N = 33)): 9
- GI Disorders, Mild (severity), (%) (6 g/day (N = 33)): (27.3) %
- General Disorders (System Organ Class), # Event (6 g/day (N = 33)): 4
- General Disorders (System Organ Class), (%) (6 g/day (N = 33)): (12.1) %
- Infections and Infestations (System Organ Class), # Event (6 g/day (N = 33)): 1
- Infections and Infestations (System Organ Class), (%) (6 g/day (N = 33)): (3.0) %
- Skin and SC Tissue Disorders (System Organ Class), # Event (6 g/day (N = 33)): 4
- Skin and SC Tissue Disorders (System Organ Class), (%) (6 g/day (N = 33)): (12.1) %
- T#at1 AE, Definitely (relationship), # Event (6 g/day (N = 33)): 0
- T#at1 AE, Definitely (relationship), (%) (6 g/day (N = 33)): (0.0) %
- T#at1 AE, Mild (severity), # Event (6 g/day (N = 33)): 14
- T#at1 AE, Mild (severity), (%) (6 g/day (N = 33)): (42.4) %
- T#at1 AE, Moderate (severity), # Event (6 g/day (N = 33)): 2
- T#at1 AE, Moderate (severity), (%) (6 g/day (N = 33)): (6.1) %
- T#at1 AE, Possibly (relationship), # Event (6 g/day (N = 33)): 2
- T#at1 AE, Possibly (relationship), (%) (6 g/day (N = 33)): (6.1) %
- T#at1 AE, Probably (relationship), # Event (6 g/day (N = 33)): 5
- T#at1 AE, Probably (relationship), (%) (6 g/day (N = 33)): (15.2) %
- T#at1 AE, Severe (severity), # Event (6 g/day (N = 33)): 1
- T#at1 AE, Severe (severity), (%) (6 g/day (N = 33)): (3.0) %
- Total number of subjects with at least one adverse event (T#at1 AE), # Event (6 g/day (N = 33)): 17
- Total number of subjects with at least one adverse event (T#at1 AE), (%) (6 g/day (N = 33)): (51.5) %
